Measured values from US4536571A, “Selenium-containing platinum compound” (priority 1983, dated 1985).

Legend:
[1] = system: Cisplatin induced nephrotoxicity (blood urea nitrogen); test: BUN determination in Cisplatin-treated mice, sodium selenite time course (Table 1); format: in vivo, BDF1 mice
Protocol: (§1) BUN of the mice which have been administered a platinum complex increases due to the platinum poisoning in the kidney. […] The method of negating platinum toxicity of the present invention will be illustrated in more detail by way of Examples later.
(§2) Sodium selenite was administered to the peritoneal cavities of the mice at a dosage of 6.3 mg/kg. […] BUN of the mice was determined on the fourth day from the date of the administration. […] BUN of these control groups was also determined.
*^1 Average BUN value of mice which was determined on the fourth day
*^3 The figure in parentheses means the number of dead mice.

[2] = system: Cisplatin induced nephrotoxicity (blood urea nitrogen); test: BUN determination in Cisplatin-treated mice, sodium selenite dose series (Table 3); format: in vivo, BDF1 mice
Protocol: as §1
BUN of the mice was dertermined on the fourth day from the date of administration and on the eleventh day from the date of the administration. […] BUN of these control groups was also determined.

[3] = LD50 of Selenium Compounds; details: mouse, in vivo, ip; intraperitoneal route, BDF1 male mice
Protocol: Our studies were carried out in BDF1 male mice weighing approximately 25 grams. All solutions were freshly were daily and given by the intraperitoneal route.

[4] = system: Cisplatin induced nephrotoxicity (blood urea nitrogen); test: BUN determination in Cisplatin-treated mice, sodium selenite time course (Table 2); format: in vivo, BDF1 mice; details: for number of dead mice: fourth day
Protocol: as §1, §2

[5] = system: nephrotoxic effects of Cisplatin; details: female rats; 750 mg/kg intraperitoneally or 100 mg/kg intravenously; cited from earlier work
cadmium toxicity = details: in vivo; cited from earlier work
[6] = sodium selenite 6.3 mg/kg i.p. 2 hours before Cisplatin 14 mg/kg i.p.
[7] = sodium selenite 6.3 mg/kg i.p. 4 hours before Cisplatin 14 mg/kg i.p.
[8] = sodium selenite 6.3 mg/kg i.p. simultaneously with Cisplatin 14 mg/kg i.p.
[9] = sodium selenite 1 mg/kg i.p. 2 hours before Cisplatin 14 mg/kg i.p.
[10] = sodium selenite 2 mg/kg i.p. 2 hours before Cisplatin 14 mg/kg i.p.
[11] = sodium selenite 4 mg/kg i.p. 2 hours before Cisplatin 14 mg/kg i.p.
[12] = sodium selenite 6 mg/kg i.p. 2 hours before Cisplatin 14 mg/kg i.p.
[13] = sodium selenite 8 mg/kg i.p. 2 hours before Cisplatin 14 mg/kg i.p.
[14] = sodium selenite 6.3 mg/kg i.p. 3 hours before Cisplatin 14 mg/kg i.p.
[15] = sodium selenite 6.3 mg/kg i.p. 6 hours before Cisplatin 14 mg/kg i.p.

O=[Se](O)O [Sodium selenite, sodium selenite]
number of dead mice ([1]; fourth day, sodium selenite 6.3 mg/kg i.p. 2 hours before Cisplatin 14 mg/kg i.p.): 2 | BUN (≥30) on the fourth day, mice ([1]; sodium selenite 6.3 mg/kg i.p. 1 hour after Cisplatin 14 mg/kg i.p.): 5/5 | BUN (≥30) on the fourth day, mice [1, 6]: 1/3 | BUN (≥30) on the fourth day, mice [1, 7]: 4/5 | BUN (≥30) on the fourth day, mice [1, 8]: 2/5 | BUN (≥30) on the fourth day, mice ([1]; sodium selenite 6.3 mg/kg only, i.p.): 0/5 | number of dead mice ([2]; eleventh day, sodium selenite 2 mg/kg i.p. 2 hours before Cisplatin 14 mg/kg i.p.): 1 | number of dead mice ([2]; eleventh day, sodium selenite 4 mg/kg i.p. 2 hours before Cisplatin 14 mg/kg i.p.): 2 | number of dead mice ([2]; eleventh day, sodium selenite 6 mg/kg i.p. 2 hours before Cisplatin 14 mg/kg i.p.): 1 | number of dead mice ([2]; eleventh day, sodium selenite 8 mg/kg i.p. 2 hours before Cisplatin 14 mg/kg i.p.): 1 | number of dead mice ([2]; fourth day, sodium selenite 4 mg/kg i.p. 2 hours before Cisplatin 14 mg/kg i.p.): 1 | number of dead mice ([2]; fourth day, sodium selenite 8 mg/kg i.p. 2 hours before Cisplatin 14 mg/kg i.p.): 1 | BUN (≥30) on the eleventh day, mice [2, 9]: 1/5 | BUN (≥30) on the fourth day, mice [2, 9]: 3/5 | BUN (≥30) on the eleventh day, mice [2, 10]: 0/4 | BUN (≥30) on the fourth day, mice [2, 10]: 1/5 | BUN (≥30) on the eleventh day, mice [2, 11]: 0/3 | BUN (≥30) on the fourth day, mice [2, 11]: 1/4 | BUN (≥30) on the eleventh day, mice [2, 12]: 0/4 | BUN (≥30) on the fourth day, mice [2, 12]: 1/5 | BUN (≥30) on the eleventh day, mice [2, 13]: 0/4 | BUN (≥30) on the fourth day, mice [2, 13]: 1/4 | LD50 [3]: 3.25 to 3.5 mg/kg | number of dead mice [4, 14]: 1 | number of dead mice [4, 7]: 1 | number of dead mice [4, 15]: 1 | number of dead mice [4, 8]: 1 | BUN (≥30) on the fourth day, mice ([4]; sodium selenite 6.3 mg/kg i.p. 1 hour before Cisplatin 14 mg/kg i.p.): 3/5 | BUN (≥30) on the fourth day, mice [4, 6]: 1/5 | BUN (≥30) on the fourth day, mice [4, 14]: 1/4 | BUN (≥30) on the fourth day, mice [4, 7]: 2/4 | BUN (≥30) on the fourth day, mice [4, 15]: 2/4 | BUN (≥30) on the fourth day, mice [4, 8]: 2/4

CCN(CC)C(=S)[S-].[Na+] [sodium diethyldithiocarbamate]
nephrotoxic effects of Cisplatin [5]: effectively inhibited

[Se] [selenium]
cadmium induced testicular damage (cadmium toxicity): prevents

O=[Se](=O)(O)O [sodium selenate]
LD50 [3]: 5.25 to 5.75 mg/kg

N[C@@H](C[Se][Se]C[C@H](N)C(=O)O)C(=O)O [selenocystine]
LD50 [3]: 4 mg/kg
